7 compounds from patent publication US20080015202A1, “Thiazole Derivatives Having Vap-1 Inhibitory Activity” (Astellas Pharma Inc., priority 2004, published 2008) can be followed below.

Structures can show the parent of a compound that is named as a salt.

The first data set concerns the target T1, VAP-1 enzyme (SSAO) in human plasma (Homo sapiens, UniProt Q16853).
T1 construct: The enzyme suspension prepared from blood plasma was pre-incubated with one of the present compounds; from tissue; host or cells: human blood plasma
T1 sequence (Q16853 27-763 limits assumed): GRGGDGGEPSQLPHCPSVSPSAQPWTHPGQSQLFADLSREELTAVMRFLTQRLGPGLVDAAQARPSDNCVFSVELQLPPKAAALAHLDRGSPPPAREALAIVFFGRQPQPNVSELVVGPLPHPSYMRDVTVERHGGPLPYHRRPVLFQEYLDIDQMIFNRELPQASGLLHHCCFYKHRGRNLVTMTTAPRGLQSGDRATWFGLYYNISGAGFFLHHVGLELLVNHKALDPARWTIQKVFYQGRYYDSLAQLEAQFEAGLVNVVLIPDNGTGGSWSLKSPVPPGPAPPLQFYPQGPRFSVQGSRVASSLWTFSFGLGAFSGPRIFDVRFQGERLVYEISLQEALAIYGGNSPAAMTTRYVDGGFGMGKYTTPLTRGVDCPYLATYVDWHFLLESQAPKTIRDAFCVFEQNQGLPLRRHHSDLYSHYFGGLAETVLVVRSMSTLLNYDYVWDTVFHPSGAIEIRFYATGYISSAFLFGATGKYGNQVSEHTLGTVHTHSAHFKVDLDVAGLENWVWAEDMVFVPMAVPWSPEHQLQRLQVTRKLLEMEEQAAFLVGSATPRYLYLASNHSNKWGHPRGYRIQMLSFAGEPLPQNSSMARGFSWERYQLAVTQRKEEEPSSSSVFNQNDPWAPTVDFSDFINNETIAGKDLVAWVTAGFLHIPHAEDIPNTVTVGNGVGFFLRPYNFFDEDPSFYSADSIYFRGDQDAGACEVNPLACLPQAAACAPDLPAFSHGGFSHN
As to the kind of experiment: Inhibitory effect on VAP-1 enzyme (SSAO) activity in human plasma, radiochemical-enzyme assay with 14C-benzylamine. Format: biochemical. The note with it: human plasma enzyme suspension; 30 min pre-incubation at room temperature; 14C-benzylamine 2×10^−5 mol/l, 37° C., 1 hour. How it is done: Inhibitory Effect of the Present Compounds on VAP-1 Enzyme (SSAO) Activity in Human Plasma.
VAP-1 enzyme (SSAO) activity in human plasma was determined by a radiochemical-enzyme assay using ^14C-benzylamine as an artificial substrate. The enzyme suspension prepared from blood plasma was pre-incubated with one of the present compounds or control compound (Reference Example) in 96-well microplate at room temperature for 30 minutes. The enzyme suspension was then incubated with ^14C-benzylamine (2×10^−5 mol/l final concentration) in a final volume of 50 μl at 37° C. for 1 hour. The enzyme reaction was terminated by adding 2 mol/l (50 μl) citric acid. The oxidized products were directly extracted into a 200 μl toluene scintillator, and its radioactivity was measured by a scintillation spectrometer. Inhibition activity was expressed as IC50 (μmol/l) value.
In the case of `CC(=O)Nc1nc(CCc2ccc(CNC(=N)N)s2)cs1` [Production Example 3, N-(4-{2-[5-({[amino(imino)methyl]amino}methyl)-2-thienyl]ethyl}thiazol-2-yl)acetamide hydrochloride], the IC50 stood at 12 nM.
As to `CC(=O)Nc1nc(CCc2ccc(Cc3c[nH]c(N)n3)cc2)cs1` [Production Example 17, N-[4-(2-{4-[(2-amino-1H-imidazol-4-yl)methyl]phenyl}ethyl)thiazol-2-yl]acetamide], half-maximal inhibition (IC50) required 5.3 nM.
With `CC(=O)Nc1nc(CCc2ccc(CC(=O)NC(=N)N)s2)cs1` [Production Example 4, 2-{5-[2-(2-acetylaminothiazol-4-yl)ethyl]-2-thienyl}-N-[amino(imino)methyl]acetamide], it took 2.4 nM to reach half-maximal inhibition (IC50).

System in the next data set: not given
Assay: not given
Conditions: not given
Compound `CC(=O)Nc1nc(CCc2ccc(CN3CCNCC3)cc2)cs1` [Production Example 12, N-(4-{2-[4-(1-piperazinylmethyl)phenyl]ethyl}thiazol-2-yl)acetamide] showed a melting point of 164 to 165.5 °C.
For the compound `CC(=O)Nc1nc(CCc2ccc(CCNC(=N)N)s2)cs1` [Production Example 1, N-(4-{2-[5-(2-{[amino(imino)methyl]amino}ethyl)-2-thienyl]ethyl}thiazol-2-yl)acetamide], the melting point lay in the range of 121.5 to 123 °C.
Consider `CC(=O)Nc1nc(CCc2ccc(CC(=O)O)s2)cs1` [Production Example 5, 2-{5-[2-(2-acetylaminothiazol-4-yl)ethyl]-2-thienyl}acetic acid], for which the melting point is 172 to 173.5 °C.
On the same count and under the same terms, as for `CC(=O)Nc1nc(CCc2ccc(CN3CCN(C(=O)OC(C)(C)C)CC3)cc2)cs1` [Production Example 11, tert-butyl 4-{4-[2-(2-acetylaminothiazol-4-yl)ethyl]benzyl}-1-piperazinecarboxylate], the figure is 140 to 141 °C.
The same measure, in the same setting: to `CC(=O)Nc1nc(CCc2ccc(CC(=O)NC(=N)N)s2)cs1` [Production Example 4, 2-{5-[2-(2-acetylaminothiazol-4-yl)ethyl]-2-thienyl}-N-[amino(imino)methyl]acetamide] belongs 188.5 to 190 °C.

Usually IC50 stands for the point on the concentration scale where inhibition reaches its midpoint. Usually melting point stands for the temperature of the solid-liquid transition.
